The source of these data is paper PMC8286840, “Identifying SARS-CoV-2 antiviral compounds by screening for small molecule inhibitors of Nsp3 papain-like protease” (Biochemical Journal, 2021).

Structures can show the parent of a compound that is named as a salt. Where two headings read alike, the source gives them in different places.

Experiment [1] addresses T1, SARS-CoV-2 PLpro (nsp3 1564–1878) (Severe acute respiratory syndrome coronavirus 2, UniProt P0DTD1). In words: biochemical. Also noted: FRET-quenched peptide (Pro3) cleavage by PLpro, 10 min pre-incubation, slope over 20 min, normalised to no-compound control. The conditions noted are these: low concentration screen, read-out: % of control remaining.
Experiment [2] has as its target T1, SARS-CoV-2 PLpro (nsp3 1564–1878). Kind of experiment: biochemical. The arrangement: FRET-quenched peptide (Pro3) cleavage by PLpro, 10 min pre-incubation, slope over 20 min, normalised to no-compound control. As to conditions: high concentration screen, read-out: % of control remaining.

In the case of `O=c1ccn([C@@H]2O[C@H](COP(=O)(O)O)[C@@H](O)[C@H]2O)c(=O)[nH]1` [Uridine 5'-monophosphate disodium salt], in experiment [1] (Well no.=8935), the remaining activity at 1.25 µM amounted to 112%. The remaining activity at 3.75 µM in experiment [2] (Well no.=8935) was found to be 97.2%.
For the compound `O=c1ccn([C@@H]2O[C@H](COP(=O)(O)O)[C@@H](O)[C@H]2O)c(=O)[nH]1` [Uridine 5'-monophosphate], the remaining activity at 1.25 µM in experiment [1] (Well no.=7495) amounted to 103%; in experiment [1] (Well no.=8889), 101%. For the same compound, the values for the remaining activity at 3.75 µM in experiment [2] (Well no.=7495) and in experiment [2] (Well no.=8889) were 103% and 99%, respectively.
Consider `CC(=O)OC[C@H]1O[C@@H](n2ccc(=O)[nH]c2=O)[C@H](OC(C)=O)[C@@H]1OC(C)=O` [Uridine triacetate], for which the remaining activity at 1.25 µM in experiment [1] (Well no.=7996) amounted to 92.7%. In addition, the remaining activity at 3.75 µM in experiment [2] (Well no.=7996) is 94.1%.
Turning to `O=c1ccn([C@@H]2O[C@H](COP(=O)(O)OP(=O)(O)OP(=O)(O)O)[C@@H](O)[C@H]2O)c(=O)[nH]1` [Uridine triphosphate (trisodium salt)], the remaining activity at 1.25 µM in experiment [1] (Well no.=7810) was determined as 105%. The remaining activity at 3.75 µM in experiment [2] (Well no.=7810) is 105%.
With `O=c1ccn([C@@H]2O[C@H](COP(=O)(O)OP(=O)(O)OP(=O)(O)O)[C@@H](O)[C@H]2O)c(=O)[nH]1` [Uridine triphosphate], the remaining activity at 1.25 µM in experiment [1] (Well no.=8933) was 95.1%. In addition, the remaining activity at 3.75 µM in experiment [2] (Well no.=8933) came out at 97.6%.
For `O=c1ccn([C@@H]2O[C@H](COP(=O)(O)OP(=O)(O)O)[C@@H](O)[C@H]2O)c(=O)[nH]1` [Uridine-5'-diphosphate disodium salt], in experiment [1] (Well no.=7718), the remaining activity at 1.25 µM was determined as 96.1%. Besides, the remaining activity at 3.75 µM in experiment [2] (Well no.=7718) turned out to be 97.7%.
Take `O=c1ccn([C@@H]2O[C@H](CO)[C@@H](O)[C@H]2O)c(=O)[nH]1` [Uridine]: the remaining activity at 1.25 µM in experiment [1] (Well no.=4716) turned out to be 103%. In addition, in experiment [2] (Well no.=4716), the remaining activity at 3.75 µM is 104%.
`C[C@H]1[C@H](C)CC[C@]2(C(=O)O)CC[C@]3(C)C(=CC[C@@H]4[C@@]5(C)CC[C@H](O)C(C)(C)[C@@H]5CC[C@]43C)[C@H]12` [Ursolic acid]: the remaining activity at 1.25 µM in experiment [1] (Well no.=3585) was 107%. Also, the remaining activity at 3.75 µM in experiment [2] (Well no.=3585) was 113%.
For the compound `C[C@H]1[C@H](C)CC[C@]2(C(=O)O)CC[C@]3(C)C(=CC[C@@H]4[C@@]5(C)CCC(=O)C(C)(C)[C@@H]5CC[C@]43C)[C@H]12` [Ursonic acid], the remaining activity at 1.25 µM in experiment [1] (Well no.=6448) was 98.3%. Moreover, the remaining activity at 3.75 µM in experiment [2] (Well no.=6448) stood at 98.4%.
Take `CS(=O)(=O)c1ccc(-c2cnc(N)c(C(=O)Nc3ccccc3)n2)cc1` [VE-821]: the remaining activity at 1.25 µM in experiment [1] (Well no.=4790) is 97.8%. In addition, the remaining activity at 3.75 µM in experiment [2] (Well no.=4790) came to 96.4%.
In the case of `O=C1Nc2ccc(Br)cc2/C1=C/c1cc2c([nH]1)CCCC2` [VEGF Receptor 2 Kinase Inhibitor II], the remaining activity at 1.25 µM in experiment [1] (Well no.=2651) was 86%. For the same compound, the remaining activity at 3.75 µM in experiment [2] (Well no.=2651) worked out at 87.8%.
As to `COc1ccc(-c2cnc3c(-c4ccsc4)cnn3c2)cc1` [VEGF Receptor 2 Kinase Inhibitor IV], the remaining activity at 1.25 µM in experiment [1] (Well no.=2655) is 95.2%. In addition, the remaining activity at 3.75 µM in experiment [2] (Well no.=2655) turned out to be 97%.
Regarding `CCOC(=O)c1c(C)[nH]c(/C=C2\C(=O)Nc3ccccc32)c1C` [VEGF Receptor 2 Kinase Inhibitor I], the remaining activity at 1.25 µM in experiment [1] (Well no.=2645) is 97.1%. The remaining activity at 3.75 µM in experiment [2] (Well no.=2645) was 102%.
Take `N#Cc1ccc(COC[C@H]2O[C@@H](n3c(NCc4ccc(Cl)c(Cl)c4)nc4c(N)ncnc43)[C@H](O)[C@@H]2O)cc1` [VER155008]: the remaining activity at 1.25 µM in experiment [1] (Well no.=8816) is 89.7%. Further, the remaining activity at 3.75 µM in experiment [2] (Well no.=8816) is 89.6%.
On to `CCNC(=O)c1[nH]nc(-c2cc(Cl)c(O)cc2O)c1-c1ccc(OC)cc1` [VER-49009], for which, in experiment [1] (Well no.=8622), the remaining activity at 1.25 µM was 100%. Also, in experiment [2] (Well no.=8622), the remaining activity at 3.75 µM was 100%.
As to `CCNC(=O)c1noc(-c2cc(Cl)c(O)cc2O)c1-c1ccc(OC)cc1` [VER-50589], the remaining activity at 1.25 µM in experiment [1] (Well no.=8670) amounted to 95.3%. In experiment [2] (Well no.=8670), the remaining activity at 3.75 µM was found to be 97.5%.
On to `C=CC(=O)N1CC/C(=C\c2ccc(F)c([N+](=O)[O-])c2)C(=O)/C(=C/c2ccc(F)c([N+](=O)[O-])c2)C1` [VLX1570], for which the remaining activity at 1.25 µM in experiment [1] (Well no.=7794) is 95.6%. For the same compound, in experiment [2] (Well no.=7794), the remaining activity at 3.75 µM amounted to 95.4%.
For the compound `COc1ccc(CNC(=O)c2sc3nc(C)cc(C)c3c2N)cc1` [VU0152100], the remaining activity at 1.25 µM in experiment [1] (Well no.=5931) was 95.9%; in experiment [1] (Well no.=7293) it was 91.9%. Besides, the remaining activity at 3.75 µM in experiment [2] (Well no.=5931) was found to be 98.2%; in experiment [2] (Well no.=7293) it was 88.9%.
For `CCOC(=O)N1CCC(NCCNC(=O)c2ccccc2C)CC1` [VU0357017 (hydrochloride)], the remaining activity at 1.25 µM in experiment [1] (Well no.=6995) was 97.4%. The remaining activity at 3.75 µM in experiment [2] (Well no.=6995) came to 95.5%.
On to `COc1cc(NC(=O)c2ccccn2)ccc1Cl` [VU0361737], for which the remaining activity at 1.25 µM in experiment [1] (Well no.=7189) was 99.9%. The remaining activity at 3.75 µM in experiment [2] (Well no.=7189) was 97.6%.
In the case of `O=C(Nc1cccc(Cl)c1)c1ccccn1` [VU0364770], the remaining activity at 1.25 µM in experiment [1] (Well no.=7761) was 102%. Moreover, in experiment [2] (Well no.=7761), the remaining activity at 3.75 µM was found to be 105%.
For `Cc1cc(OCCCc2c3n(c4c(-c5c(C)nn(C)c5C)c(Cl)ccc24)[C@H](C)CN(c2cn(C)c4ccc(C(=O)O)cc24)C3=O)cc(C)c1Cl` [VU0661013], the remaining activity at 1.25 µM in experiment [1] (Well no.=7066) stood at 105%. For the same compound, the remaining activity at 3.75 µM in experiment [2] (Well no.=7066) is 98.3%.
Take `COc1ccc(CN2C(=O)C(=O)c3cc(OC(F)(F)F)ccc32)cc1` [VU 0238429]: the remaining activity at 1.25 µM in experiment [1] (Well no.=8702) was 97.3%. Moreover, in experiment [2] (Well no.=8702), the remaining activity at 3.75 µM amounted to 93.7%.
For the compound `CCCCOc1ccc(C(=O)Nc2ccc(F)cc2F)cc1` [VU 0357121], the remaining activity at 1.25 µM in experiment [1] (Well no.=4932) worked out at 99.8%; in experiment [1] (Well no.=7857), 105%. Further, the remaining activity at 3.75 µM is 98.8% in experiment [2] (Well no.=4932) and 107% in experiment [2] (Well no.=7857).
As to `COc1cc(NC(=O)c2ccccn2)ccc1Cl` [VU 0361737], in experiment [1] (Well no.=4837), the remaining activity at 1.25 µM is 98.5%. Besides, the remaining activity at 3.75 µM in experiment [2] (Well no.=4837) was 106%.
In the case of `O=C(Nc1ccc(S(=O)(=O)Nc2ccccc2Cl)c(Cl)c1)c1ccccn1` [VU 0364439], the remaining activity at 1.25 µM in experiment [1] (Well no.=4978) is 96.2%. The remaining activity at 3.75 µM in experiment [2] (Well no.=4978) came to 96.2%.
Turning to `O=C1C(=O)N(Cc2ccc(-c3ccccc3)cc2)c2ccc(OC(F)(F)F)cc21` [VU 0365114], the remaining activity at 1.25 µM in experiment [1] (Well no.=8036) is 97.4%. For the same compound, the remaining activity at 3.75 µM in experiment [2] (Well no.=8036) was determined as 94.8%.
As to `CN1CCN(c2cc(-c3ccccc3)nc(N)n2)CC1` [VUF10460], the remaining activity at 1.25 µM in experiment [1] (Well no.=7041) was determined as 105%. In experiment [2] (Well no.=7041), the remaining activity at 3.75 µM came to 105%.
`COc1ccccc1NC(=O)Nc1nc(-c2cccnc2)nc2ccccc12` [VUF 5574]: the remaining activity at 1.25 µM in experiment [1] (Well no.=1384) is 101%. Also, the remaining activity at 3.75 µM in experiment [2] (Well no.=1384) came out at 97.5%.
In the case of `CN1CCN(c2nc3ccccc3nc2Cl)CC1` [VUF 10166], the remaining activity at 1.25 µM in experiment [1] (Well no.=4831) turned out to be 99.1%. Besides, in experiment [2] (Well no.=4831), the remaining activity at 3.75 µM worked out at 103%.
